Values of other authors in patent publication US20130079371A1, “Bioadhesive Compositions of Local Anaesthetics” (PHARMANEST AB, priority 2010, published 2013).

For `CCCCN1CCCC[C@H]1C(=O)Nc1c(C)cccc1C` [levobupivacaine], which pKa is on record?
Its pKa is 8.1.
